The values below come from PubChem BioAssay (NCI).

Test systems include A549 NSCLC; MALME-3M melanoma; OVCAR-3 ovarian; A498 renal.
What all share (assay): NCI-60 cell line screen, 48 h

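Growth conditions: 96-well plates. Treatment: test compound, 48 hours, 5 concentrations. Analysis: linear interpolation between bracketing concentrations; unreached endpoints set to highest concentration. TGI: concentration producing complete growth inhibition.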 Bounds are passed on as bounds.

For `Cc1ccc(C(=O)O)c(CC2Cc3c(C)cccc3C2=O)c1` (stereo unspecified), the TGI with A549 NSCLC, with MALME-3M melanoma and in the assay on OVCAR-3 ovarian was greater than 100 µM in each case.
`O=[N+]([O-])c1c(Br)cc(Br)c2c1Nc1c(ccc(Cl)c1Cl)S2`: the TGI with A498 renal came to 39.1 µM; in the assay with A549 NSCLC, 39.5 µM; in the assay on MALME-3M melanoma it was 27.7 µM; in the assay with OVCAR-3 ovarian, 9.5 µM.
As for `C/C=C\C(CC(=O)NCCc1cn(C(=O)OCc2ccccc2)c2ccccc12)CC(=O)OC` (stereo unspecified), the TGI in the assay on A498 renal, with A549 NSCLC, with MALME-3M melanoma and in the assay with OVCAR-3 ovarian was greater than 100 µM in each case.
In the case of `C[C@@H](O)C(=O)N1[C@@H]2CC3CC[C@]2(CS1(=O)=O)C3(C)C`, the TGI in the assay on A549 NSCLC and in the assay on OVCAR-3 ovarian was greater than 100 µM in each case.
As to `COc1nc2c(c(=O)n1C)N[C@H]1[C@H](OC(C)=O)[C@@H](OC(C)=O)CO[C@H]1N2`, the TGI in the assay with A498 renal, with A549 NSCLC, in the assay on MALME-3M melanoma and in the assay with OVCAR-3 ovarian was greater than 100 µM throughout.
For the compound `CC1(C)OCC(C(O)C2OC(C)(C)OC2C=O)O1` (stereo unspecified), the TGI with A498 renal, with A549 NSCLC, in the assay on MALME-3M melanoma and with OVCAR-3 ovarian was greater than 100 µM each time.
Take `COc1cccc(CC(C)NCC(O)c2ccc(O)c(O)c2)c1` (stereo unspecified): the TGI in the assay with A498 renal, in the assay with A549 NSCLC, in the assay with MALME-3M melanoma and in the assay with OVCAR-3 ovarian was greater than 100 µM in each case.
Regarding `Cn1nc2n(c1=O)CCCN2`, the TGI with A498 renal, in the assay on A549 NSCLC, in the assay on MALME-3M melanoma and in the assay on OVCAR-3 ovarian was greater than 100 µM throughout.
`C(=C\c1cccc(/C=C/c2ccccn2)n1)/c1ccccn1`: the TGI in the assay on A498 renal was 71.7 µM; in the assay with A549 NSCLC, greater than 100 µM; in the assay on MALME-3M melanoma it was 39.9 µM; in the assay on OVCAR-3 ovarian, greater than 100 µM.
As to `CN(C)c1nc(N(C)C)nc(N(C)C23CC4CC(CC(C4)C2)C3)n1`, the TGI was greater than 100 µM in the assay with A498 renal, greater than 100 µM in the assay with A549 NSCLC, 95.7 µM in the assay on MALME-3M melanoma and greater than 100 µM in the assay on OVCAR-3 ovarian.
`CCOC(=O)C(=[N+]=[N-])C(=O)Nc1nn2nnnc2c2ccccc12`: the TGI in the assay with A498 renal, in the assay with A549 NSCLC, in the assay with MALME-3M melanoma and in the assay with OVCAR-3 ovarian was greater than 100 µM each time.
For `CC[N+]1(C)CCC(O)(/C=C/c2ccc(OC)cc2)C(C(=O)/C=C/c2ccc(OC)cc2)C1` (stereo unspecified), the TGI in the assay with A498 renal is 31.4 µM; in the assay on A549 NSCLC, greater than 58 µM; in the assay with MALME-3M melanoma, 34.6 µM; in the assay with OVCAR-3 ovarian it was 53 µM.
The corresponding values for `Cc1nc2c3c(ncn2n1)Oc1c(c(-c2ccccc2)nn1-c1ccccc1)C3c1ccc(Cl)cc1` (stereo unspecified) are greater than 100 µM, greater than 100 µM, greater than 100 µM and greater than 100 µM.
Turning to `CC(=O)O[C@@H]1C[C@@]23C[C@@]24CC[C@H](OC2OCC(O)C(O)C2O)C(C)(C)[C@@H]4CC=C3[C@]2(C)C[C@@H]3OC4(C[C@@H](C)[C@@H]3[C@@]12C)OC(O)[C@@]1(C)O[C@@H]41` (stereo partly specified), the TGI with A498 renal was greater than 100 µM; in the assay on A549 NSCLC, greater than 100 µM; with MALME-3M melanoma, greater than 100 µM; with OVCAR-3 ovarian, 34.5 µM.
On to `O=C(CCN1CCCC1)Nc1ccc2sc3ccccc3c(=O)c2n1`, for which the TGI in the assay on A498 renal worked out at 33.7 µM; in the assay with A549 NSCLC, 17.9 µM; in the assay on MALME-3M melanoma, 17.6 µM; with OVCAR-3 ovarian, 20.5 µM.
In the same order, the values of `CN(C)/N=C/c1cn(C)c(=O)n(C)c1=O` are greater than 100 µM, greater than 100 µM, greater than 100 µM and greater than 100 µM.
In the case of `Cc1cc(O)c(C(C)C)cc1SC#N`, the TGI in the assay on A498 renal worked out at 31.9 µM; in the assay with MALME-3M melanoma, 35.9 µM; in the assay on OVCAR-3 ovarian, 28.8 µM.
On to `CCOC(=O)c1c(N2CCCC2)ncn(-c2ccccc2)c1=S`, for which the TGI with A498 renal, in the assay with A549 NSCLC, in the assay with MALME-3M melanoma and with OVCAR-3 ovarian was greater than 100 µM in each case.
Consider `CC(C)=CCC[C@@H](C)C1=C(Nc2ccccc2Cl)C(O)=C(C)C(=O)C1=O`, for which the TGI in the assay on A498 renal is 27.4 µM; with A549 NSCLC, 15.7 µM; in the assay with MALME-3M melanoma it was 18.7 µM; in the assay on OVCAR-3 ovarian, 16.5 µM.
For `CCOP(=O)(OCC)C(Nc1cccc(F)c1)c1ccccc1` (stereo unspecified), the TGI in the assay with A498 renal, in the assay with A549 NSCLC, in the assay with MALME-3M melanoma and in the assay on OVCAR-3 ovarian was greater than 100 µM each time.
For `CCc1c(Cc2cccc3ccccc23)n2c(nc1=O)SCC2OCCO` (stereo unspecified), the TGI in the assay on A498 renal, in the assay with A549 NSCLC and in the assay with MALME-3M melanoma was greater than 100 µM each time.
As for `CC(=O)OCC1OC(n2c3c(c(-c4cccc5ccccc45)c(C#N)c2=S)CCCC3)C(OC(C)=O)C(OC(C)=O)C1OC(C)=O` (stereo unspecified), the TGI with A498 renal, in the assay with A549 NSCLC, with MALME-3M melanoma and in the assay with OVCAR-3 ovarian was greater than 100 µM each time.
Turning to `CCCCc1cc2c(C)cc(=O)oc2c(O)c1O`, the TGI in the assay on A498 renal is 72 µM; with A549 NSCLC, greater than 100 µM; in the assay on MALME-3M melanoma, 88.9 µM; in the assay with OVCAR-3 ovarian, 82 µM.
Turning to `C=C(CCC(C)C1CCC2C3=C(C(=O)CC21C)C1(C)CCC(=O)[C@@H](C)C1CC3=O)C(C)C(=O)O` (stereo partly specified), the TGI in the assay with A498 renal, in the assay with A549 NSCLC, in the assay with MALME-3M melanoma and in the assay with OVCAR-3 ovarian was greater than 100 µM each time.
In the case of `C/C(=C\c1ccccn1)c1ccccn1`, the TGI with A498 renal, in the assay on A549 NSCLC, in the assay with MALME-3M melanoma and in the assay on OVCAR-3 ovarian was greater than 100 µM each time.
As for `COc1ccc(/C=c2\[nH]c3nc(=O)c(N4CCOCC4)c(N)n3c2=O)cc1`, the TGI with A498 renal, with A549 NSCLC and in the assay on MALME-3M melanoma was greater than 100 µM throughout.
For `c1ccc(CCN2CCc3[nH]c4ccccc4c3C2)cc1`, the TGI with A498 renal was determined as 33.3 µM; with A549 NSCLC, 62.3 µM; with MALME-3M melanoma, 32.8 µM.
